This is an account of results in patent US6569451B1, “Targeted polymerized liposome diagnostic and treatment agents” (Targesome, Inc., priority 1994, dated 2003).

The conditions of data set [1]: rat, in vivo; cited from earlier work.
A short description of data set [2]: Magnetic resonance relaxivity (R1, R2) of paramagnetic polymerized liposomes. It counts as physicochemical. An excerpt: We have constructed paramagnetic polymerized liposomes using the above techniques with 2.5 to 100 mol % of the gadolinium chelated diamide shown in FIG. 4, with the polyethylene glycol linker m=1 and m=2, and sizes ranging from 30 nm to 200 nm in diameter. We have determined the maximum T1 relaxivity, showing the best contrast, is obtained with 15% gadolinium chelated diamide and 85% DAPC with m=2 and having 200 nm particle size. High relaxivity is also observed with 30% gadolinium chelated diamide and 70% PDA with m=1 and having a variable particle size of about 10 to about 200 nm.
Similar measurements were made using PDA liposomes as the matrix lipid and the gadolinium chelated diamide (m=1).

Take `O=C([O-])CN(CCN(CC(=O)[O-])CC(=O)O)CCN(CC(=O)[O-])CC(=O)O.[Gd+3]` [Gd (DTPA), gadolinium diethylenetriaminepentaacetic acid]: the “elimination from the blood pool” value in data set [1] was “within a few minutes”. The “molar relaxivity per Gd^+3 ion” value in data set [2] was determined as 4.2 mM⁻¹ s⁻¹. In data set [2] (DAPC matrix lipid, gadolinium-diamide %, linker m and size as in label), this compound showed an R1 of 4.4 s⁻¹ mM⁻¹.
